Patent US10952992B2, “Methods of treating intraocular pressure with activators of Tie-2” (Aerpio Pharmaceuticals, Inc., priority 2015, dated 2021)

Test: Example 2 iris, retina, choroid and cornea tissue concentrations
Type: in vivo, male New Zealand White rabbits
Procedure: To measure the concentration of Compound 1 in plasma and ocular tissues following topical ocular, subcutaneous, and intravitreal administration, New Zealand White rabbits were administered Compound 1, and plasma and ocular samples were collected at pre-determined time points. Compound 1 formulations were prepared fresh on each day of dosing.
Ocular tissue samples from both eyes of each animal were collected and weights were recorded. Plasma and ocular tissue sample concentrations of Compound 1 were determined by LC-MS/MS.
Animals were anesthetized for ocular (topical) and intravitreal dosing following the 12IA7 IACUC protocol. Each rabbit received a bolus dose of test formulation either via topical ocular administration 3 times daily on Days 1 and 2 (at 0, 6, and 12 hours), and once on Day 3 (at 0 hours) into both eyes; via intravitreal administration into both eyes once on Day 1 (at 0 hours); or via subcutaneous administration 2 times daily on Days 1 and 2 (at 0 and 8 hours) and once daily on Day 3 (at 0 hours). Doses were given within an approximately 1 hour window each day where applicable.
On Day 1, for intravitreal administration, or on Day 3, for topical ocular and subcutaneous administration, at the appropriate ocular tissue collection time points, animals were euthanized and both eyes were enucleated immediately. Following enucleation, each eye was rinsed with phosphate-buffered saline. Ocular tissue samples from both eyes of each animal were collected at predetermined time points and weights were recorded. All the samples were frozen immediately on dry ice, and stored at −60° C. to −80° C. pending bioanalysis.
An LC-MS/MS method was developed for the determination of Compound 1 in rabbit aqueous tissues (plasma, aqueous and vitreous humor) and solid ocular tissue samples. A pre-study standard curve was analyzed to determine the specificity, range, and lower limit of quantitation of the method. Plasma and tissue homogenate study samples were extracted and analyzed. All the samples were treated identically to the standards.
One eight-point standard curve was used in each analytical batch. To be accepted, each batch must have had at least five of eight standards with accuracy within ±20% of nominal, except at the lower limit of quantification (LLOQ), where ±25% was acceptable.

iris, retina, choroid, cornea concentrations, intravitreal relative to subcutaneous or ocular topical (both test formulations): higher concentrations | persistence of concentrations in all ocular tissues (intravitreal administration of both test formulations): persisted at 72 hours
SMILES: COC(=O)N[C@@H](Cc1ccccc1)C(=O)N[C@@H](Cc1ccc(NS(=O)(=O)O)cc1)c1csc(-c2cccs2)n1 [Compound 1]
